Measurements: patent publication US10710993B2, “Benzofuran pyrazole amine kinase inhibitor” (Hangzhou REX Pharmaceutical Co., LTD., priority 2016, dated 2020)

Tests used:
Wild-Type ALK = target: T1, Wild-Type ALK (Homo sapiens, UniProt Q9UM73); test: Z'-LYTE (FRET) ALK kinase inhibitory activity; assay type: biochemical
T1 construct: purchased Life Technology
Procedure: (§1) The kinase activity assay was determined by using kinase assay panel (Life Technology) and the result was in table 1.

ALK L1196M = target: T2, ALK L1196M (Homo sapiens, UniProt Q9UM73, L1196M); test: LanthaScreen Eu Kinase Binding Assay (TR-FRET) on ALK mutant
T2 construct: purchased Life Technology
T2 sequence (Q9UM73 19-1620 L1196M): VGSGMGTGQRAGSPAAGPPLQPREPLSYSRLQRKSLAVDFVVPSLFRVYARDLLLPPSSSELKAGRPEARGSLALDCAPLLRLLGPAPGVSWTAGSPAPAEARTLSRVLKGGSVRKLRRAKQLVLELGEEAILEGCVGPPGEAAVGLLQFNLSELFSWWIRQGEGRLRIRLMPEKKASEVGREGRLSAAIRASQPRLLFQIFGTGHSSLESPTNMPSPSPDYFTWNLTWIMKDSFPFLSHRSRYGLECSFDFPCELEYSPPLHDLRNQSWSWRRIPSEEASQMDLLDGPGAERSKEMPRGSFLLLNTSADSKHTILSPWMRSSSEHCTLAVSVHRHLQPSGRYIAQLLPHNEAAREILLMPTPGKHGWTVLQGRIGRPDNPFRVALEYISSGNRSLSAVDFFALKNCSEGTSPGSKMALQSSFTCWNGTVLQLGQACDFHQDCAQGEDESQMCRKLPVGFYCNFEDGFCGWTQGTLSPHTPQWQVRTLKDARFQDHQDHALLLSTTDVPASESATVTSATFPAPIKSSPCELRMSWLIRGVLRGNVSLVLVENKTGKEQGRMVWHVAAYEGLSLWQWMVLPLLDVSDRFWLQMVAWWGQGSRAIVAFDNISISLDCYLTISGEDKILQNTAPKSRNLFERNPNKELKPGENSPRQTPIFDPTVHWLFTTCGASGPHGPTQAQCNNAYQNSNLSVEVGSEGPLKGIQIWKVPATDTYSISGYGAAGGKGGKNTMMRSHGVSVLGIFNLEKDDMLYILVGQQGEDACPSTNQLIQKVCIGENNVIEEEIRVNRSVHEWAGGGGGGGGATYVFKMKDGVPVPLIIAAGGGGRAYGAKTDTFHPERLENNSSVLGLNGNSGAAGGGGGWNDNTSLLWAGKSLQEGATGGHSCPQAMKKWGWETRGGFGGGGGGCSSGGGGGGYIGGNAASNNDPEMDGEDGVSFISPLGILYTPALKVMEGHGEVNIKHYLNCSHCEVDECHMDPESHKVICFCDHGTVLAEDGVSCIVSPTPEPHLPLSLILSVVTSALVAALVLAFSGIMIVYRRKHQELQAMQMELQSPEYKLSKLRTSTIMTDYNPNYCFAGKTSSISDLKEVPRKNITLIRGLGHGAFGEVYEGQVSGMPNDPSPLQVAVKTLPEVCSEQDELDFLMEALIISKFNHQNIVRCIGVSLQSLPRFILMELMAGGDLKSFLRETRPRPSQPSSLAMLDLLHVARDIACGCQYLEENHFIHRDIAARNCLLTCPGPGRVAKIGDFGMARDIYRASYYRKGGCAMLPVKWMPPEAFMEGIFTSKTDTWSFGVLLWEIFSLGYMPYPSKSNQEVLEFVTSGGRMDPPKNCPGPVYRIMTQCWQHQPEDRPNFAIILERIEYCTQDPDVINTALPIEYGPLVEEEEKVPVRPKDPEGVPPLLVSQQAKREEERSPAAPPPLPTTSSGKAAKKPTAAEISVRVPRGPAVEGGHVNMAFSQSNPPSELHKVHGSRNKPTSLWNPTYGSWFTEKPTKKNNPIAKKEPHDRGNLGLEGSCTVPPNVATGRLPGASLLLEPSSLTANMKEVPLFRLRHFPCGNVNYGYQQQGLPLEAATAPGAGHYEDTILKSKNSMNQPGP
From the text: Meanwhile, The LanthaScreen® Eu Kinase Binging Assay (TR-FRET) method was used for determining ALK Mutants (such as ALK L1196M) inhibitory activity IC50. LanthaScreen Eu kinase binding experiment detected Alexa Fluor conjugate or kinase “tracer” binding by adding Eu labeled antibodies or anti-label antibodies. The combination of tracer and antibody with kinase leads to a high level of FRET, whereas the use of kinase inhibitors in place of tracer may cause FRET loss.
as §1

TEL-ALK-F1174L-BaF3 = target: T3, TEL-ALK-F1174L-BaF3 (Homo sapiens, UniProt Q9UM73, F1174L, cells depend on it); test: Cell proliferation experiment (Cell-Titer GLO), TEL-ALK-F1174L-BaF3; assay type: cell-based; settings: 72 h, read-out: IC50 TEL-ALK F1174L-BaF3
T3 construct: fused on or other part: TEL (ETV6) N-terminal oligomerising part fused before the ALK intracellular/kinase part; P41212 (Transcription factor ETV6)
T3 sequence (Q9UM73 whole entry F1174L, the tested form may be a part): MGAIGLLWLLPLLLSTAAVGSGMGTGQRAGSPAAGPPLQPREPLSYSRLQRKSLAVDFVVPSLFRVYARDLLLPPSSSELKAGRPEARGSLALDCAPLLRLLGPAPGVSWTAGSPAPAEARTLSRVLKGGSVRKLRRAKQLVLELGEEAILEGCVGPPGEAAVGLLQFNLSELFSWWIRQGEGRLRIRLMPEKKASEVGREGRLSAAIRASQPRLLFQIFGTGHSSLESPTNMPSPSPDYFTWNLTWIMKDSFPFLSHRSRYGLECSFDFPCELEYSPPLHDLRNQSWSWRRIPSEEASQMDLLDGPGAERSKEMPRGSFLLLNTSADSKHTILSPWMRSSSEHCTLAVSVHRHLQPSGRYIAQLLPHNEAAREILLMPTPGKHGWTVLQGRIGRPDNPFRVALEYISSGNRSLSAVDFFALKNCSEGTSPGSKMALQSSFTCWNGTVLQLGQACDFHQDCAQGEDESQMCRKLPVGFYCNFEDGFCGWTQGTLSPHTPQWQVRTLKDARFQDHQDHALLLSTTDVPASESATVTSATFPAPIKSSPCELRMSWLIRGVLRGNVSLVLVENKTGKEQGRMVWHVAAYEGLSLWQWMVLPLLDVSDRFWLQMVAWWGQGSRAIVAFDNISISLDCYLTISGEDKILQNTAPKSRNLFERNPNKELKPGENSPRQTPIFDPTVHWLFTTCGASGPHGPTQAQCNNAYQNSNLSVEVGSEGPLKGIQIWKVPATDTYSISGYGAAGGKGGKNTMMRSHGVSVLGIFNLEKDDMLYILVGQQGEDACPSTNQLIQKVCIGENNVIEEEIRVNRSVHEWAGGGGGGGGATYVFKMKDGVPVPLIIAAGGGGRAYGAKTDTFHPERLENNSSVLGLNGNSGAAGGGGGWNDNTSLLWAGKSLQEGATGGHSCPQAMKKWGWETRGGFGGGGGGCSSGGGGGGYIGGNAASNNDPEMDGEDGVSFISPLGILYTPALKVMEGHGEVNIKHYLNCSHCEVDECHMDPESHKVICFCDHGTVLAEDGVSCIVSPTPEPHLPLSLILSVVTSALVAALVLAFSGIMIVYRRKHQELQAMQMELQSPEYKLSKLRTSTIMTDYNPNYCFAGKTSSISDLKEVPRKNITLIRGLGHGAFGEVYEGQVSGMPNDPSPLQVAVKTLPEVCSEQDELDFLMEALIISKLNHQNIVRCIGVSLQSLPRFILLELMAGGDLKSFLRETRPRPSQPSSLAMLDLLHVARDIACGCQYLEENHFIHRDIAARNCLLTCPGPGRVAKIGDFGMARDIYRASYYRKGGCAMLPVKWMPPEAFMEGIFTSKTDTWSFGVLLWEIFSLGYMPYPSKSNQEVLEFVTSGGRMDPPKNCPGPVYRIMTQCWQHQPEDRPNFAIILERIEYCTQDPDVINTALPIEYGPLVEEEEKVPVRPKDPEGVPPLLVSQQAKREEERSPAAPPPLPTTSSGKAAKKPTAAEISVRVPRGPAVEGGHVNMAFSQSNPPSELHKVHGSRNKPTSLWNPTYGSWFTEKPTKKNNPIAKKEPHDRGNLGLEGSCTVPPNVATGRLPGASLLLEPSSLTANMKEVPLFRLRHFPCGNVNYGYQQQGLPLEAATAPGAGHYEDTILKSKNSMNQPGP
Procedure: (§2) Compounds to be tested: Positive compound Ceritinib and the compounds obtained by the examples of the present invention.
(§3) Cell lines: Karpas-299 and NCI-H3122 which were purchased from the Nanjing kebai biotechnology Co. LTD; TEL-ALK-F1174L-BaF3, TEL-ALK-G1202R-BaF3, TEL-ALK-C1156Y-BaF3 and TEL-ALK-L1196M-BaF3 which were purchased from Hefei zhongkopruisheng biological medicine technology Co. LTD.
(§4) Method: Cells were seeded in 96-well plates for 24 h in growth media containing 10% fetalbovine serum (FBS) and cultured overnight at 37° C. The following day, serial dilutions of compounds or appropriate control were added to the designated wells, and cells were incubated at 37° C. for 72 h. A Cell Titer Glo assay (Promega) was then performed to determine the relative cell numbers. IC50 values were calculated by concentration-response curve fitting using a four-parameter analytical method with Graphpad 6.0. Drug inhibition rate (%)=100%−[OD(Compound)−OD(blank)]/[OD(vehicle)−OD(blank)]×100% Equation: […]

TEL-ALK-G1202R-BaF3 = target: T4, TEL-ALK-G1202R-BaF3 (Homo sapiens, UniProt Q9UM73, G1202R, cells depend on it); test: Cell proliferation experiment (Cell-Titer GLO), TEL-ALK-G1202R-BaF3; assay type: cell-based; settings: 72 h, read-out: IC50 TEL-ALK G1202R-BaF3
T4 construct: fused on or other part: TEL (ETV6) N-terminal oligomerising part fused before the ALK intracellular/kinase part; P41212 (Transcription factor ETV6)
T4 sequence (Q9UM73 whole entry G1202R, the tested form may be a part): as the sequence (Q9UM73 whole entry F1174L, the tested form may be a part) above, with L1174F, G1202R counted along it
Procedure: as §2, §3, §4

NCI-H3122 = test: Cell proliferation experiment (Cell-Titer GLO), NCI-H3122; assay type: cell-based; settings: Homo sapiens, 72 h
Procedure: as §2, §3, §4

T1 sequence (Q9UM73 19-1620): as the sequence (Q9UM73 19-1620 L1196M) above, with M1178L counted along it

| IC50 (Wild-Type ALK) [nM] | IC50 (ALK L1196M) [nM] | GI50 (TEL-ALK-F1174L-BaF3) [nM] | GI50 (TEL-ALK-G1202R-BaF3) [nM] | IC50 (NCI-H3122) [nM] | SMILES |
| --- | --- | --- | --- | --- | --- |
| 15.8 | 1.02 | 51.8 | > 180 | 11.8 | Cc1cc(Nc2ncc(C(F)(F)F)c(Nc3cn(C4CC4)nc3S(=O)(=O)C(C)C)n2)c2c(c1C1CCN(C)CC1)C[C@@H](C)O2 [REX-D9, (R)—N^4-(1-cyclopropyl-3-(isopropylsulfonyl)-1H-pyrazol-4-yl)-N^2-(2,5-dimethyl-4-(1-methylpiperidin-4-yl)-2,3-dihydrobenzofuran-7-yl)-5-(trifluoromethyl)pyrimidine-2,4-diamine] |
| 9.21 | 1.07 | 11.6 | > 180 | 10.7 | CC(=O)N1CCC(c2c(C)cc(Nc3ncc(Cl)c(Nc4cn(C)nc4S(=O)(=O)C(C)C)n3)c3c2C[C@@H](C)O3)CC1 [REX-D12, (R)-1-(4-(7-((5-chloro-4-((3-(isopropylsulfonyl)-1-methyl-1H-pyrazol-4-yl)amino)pyrimidin-2-yl)amino)-2,5-dimethyl-2,3-dihydrobenzofuran-4-yl)piperidin-1-yl)ethanone] |
|  |  | 11.4 | > 180 |  | CC(C)S(=O)(=O)c1nn(C)cc1Nc1nc(Nc2cc(F)c(C3CCN(C)CC3)c3c2O[C@H](C)C3)ncc1C(F)(F)F [REX-D8, (R)—N^2-(5-fluoro-2-methyl-4-(1-methylpiperidin-4-yl)-2,3-dihydrobenzofuran-7-yl)-N^4-(3-(isopropylsulfonyl)-1-methyl-1H-pyrazol-4-yl)-5-(trifluoromethyl)pyrimidine-2,4-diamine] |
|  |  | < 10 | > 180 |  | Cc1cc(Nc2ncc(Cl)c(Nc3cn(C)nc3S(=O)(=O)CC(C)C)n2)c2c(c1C1CCN(C)CC1)C[C@@H](C)O2 [REX-D38, (R)-5-chloro-N^2-(2,5-dimethyl-4-(1-methylpiperidin-4-yl)-2,3-dihydrobenzofuran-7-yl)-N^4-(3-(isobutylsulfonyl)-1-methyl-1H-pyrazol-4-yl)pyrimidine-2,4-diamine] |
|  |  | 11.1 | > 180 |  | Cc1cc(Nc2ncc(Cl)c(Nc3cn(C)nc3S(=O)(=O)C(C)C)n2)c2c(c1C1CCN(C)CC1)CCC(C)O2 (centres unmarked) [REX-D25, 5-chloro-N^2-(2,6-dimethyl-5-(1-methylpiperidin-4-yl)chroman-8-yl)-N^4-(3-(isopropylsulfonyl)-1-methyl-1H-pyrazol-4-yl)pyrimidine-2,4-diamine] |
| 9.4 | 1.12 | 26.1 | > 180 | 13.9 | Cc1cc(Nc2ncc(Cl)c(Nc3cn(C4CC4)nc3S(=O)(=O)C(C)C)n2)c2c(c1C1CCN(C)CC1)C[C@@H](C)O2 [REX-D34, (R)-5-chloro-N^4-(1-cyclopropyl-3-(isopropylsulfonyl)-1H-pyrazol-4-yl)-N^2-(2,5-dimethyl-4-(1-methylpiperidin-4-yl)-2,3-dihydrobenzofuran-7-yl)pyrimidine-2,4-diamine] |
| 9.28 | 0.55 | 22.4 | > 180 | 11.4 | CCn1cc(Nc2nc(Nc3cc(C)c(C4CCN(C)CC4)c4c3O[C@H](C)C4)ncc2Cl)c(S(=O)(=O)C(C)C)n1 [REX-D36, (R)-5-chloro-N^2-(2,5-dimethyl-4-(1-methylpiperidin-4-yl)-2,3-dihydrobenzofuran-7-yl)-N^4-(1-ethyl-3-(isopropylsulfonyl)-1H-pyrazol-4-yl)pyrimidine-2,4-diamine] |
|  |  | 94.8 | > 180 |  | Cc1cc(Nc2ncc(Cl)c(Nc3cn(C4CC4)nc3S(=O)(=O)CC(C)C)n2)c2c(c1C1CCNCC1)C[C@@H](C)O2 [REX-D40, (R)-5-chloro-N^4-(1-cyclopropyl-3-(isobutylsulfonyl)-1H-pyrazol-4-yl)-N^2-(2,5-dimethyl-4-(piperidin-4-yl)-2,3-dihydrobenzofuran-7-yl)pyrimidine-2,4-diamine] |
| 13.9 | 1.99 | 80.4 | > 180 | 40.3 | Cc1cc(Nc2ncc(Cl)c(Nc3cn(C(C)C)nc3S(=O)(=O)C(C)C)n2)c2c(c1C1CCN(C)CC1)C[C@@H](C)O2 [REX-D35, (R)-5-chloro-N^2-(2,5-dimethyl-4-(1-methylpiperidin-4-yl)-2,3-dihydrobenzofuran-7-yl)-N^4-(1-isopropyl-3-(isopropylsulfonyl)-1H-pyrazol-4-yl)pyrimidine-2,4-diamine] |
|  |  | < 10 | > 180 |  | Cc1cc(Nc2ncc(Cl)c(Nc3cn(C)nc3S(=O)(=O)CC(C)C)n2)c2c(c1C1CCN(CCO)CC1)C[C@@H](C)O2 [REX-D39, (R)-2-(4-(7-((5-chloro-4-((3-(isobutylsulfonyl)-1-methyl-1H-pyrazol-4-yl)amino)pyrimidin-2-yl)amino)-2,5-dimethyl-2,3-dihydrobenzofuran-4-yl)piperidin-1-yl)ethanol] |
|  |  | 58.7 | > 180 |  | Cc1cc(Nc2ncc(Cl)c(Nc3cn(C)nc3S(=O)(=O)CC(C)C)n2)c2c(c1C1CCNCC1)C[C@@H](C)O2 [REX-D37, (R)-5-chloro-N^2-(2,5-dimethyl-4-(piperidin-4-yl)-2,3-dihydrobenzofuran-7-yl)-N^4-(3-(isobutylsulfonyl)-1-methyl-1H-pyrazol-4-yl)pyrimidine-2,4-diamine] |
| 19.3 | 3.86 | < 200 | > 180 | 57.2 | Cc1cc(Nc2ncc(Cl)c(Nc3cn(C(C)C)nc3S(=O)(=O)C(C)C)n2)c2c(c1C1CCNCC1)C[C@@H](C)O2 [REX-D32, (R)-5-chloro-N^2-(2,5-dimethyl-4-(piperidin-4-yl)-2,3-dihydrobenzofuran-7-yl)-N^4-(1-isopropyl-3-(isopropylsulfonyl)-1H-pyrazol-4-yl)pyrimidine-2,4-diamine] |
|  |  | < 10 | > 180 |  | CC(C)S(=O)(=O)c1nn(C)cc1Nc1nc(Nc2cc(F)c(C3CCN(C)CC3)c3c2O[C@H](C)C3)ncc1Cl [REX-D24, (R)-5-chloro-N^2-(5-fluoro-2-methyl-4-(1-methylpiperidin-4-yl)-2,3-dihydrobenzofuran-7-yl)-N^4-(3-(isopropylsulfonyl)-1-methyl-1H-pyrazol-4-yl)pyrimidine-2,4-diamine] |
| 15.1 | 1.92 | 138 | > 180 | 40.4 | Cc1cc(Nc2ncc(Cl)c(Nc3cn(C4CC4)nc3S(=O)(=O)C(C)C)n2)c2c(c1C1CCNCC1)C[C@@H](C)O2 [REX-D31, (R)-5-chloro-N^4-(1-cyclopropyl-3-(isopropylsulfonyl)-1H-pyrazol-4-yl)-N^2-(2,5-dimethyl-4-(piperidin-4-yl)-2,3-dihydrobenzofuran-7-yl)pyrimidine-2,4-diamine] |
|  |  | 17.8 | > 180 |  | CC(C)S(=O)(=O)c1nn(C)cc1Nc1nc(Nc2cc(F)c(C3CCNCC3)c3c2O[C@H](C)C3)ncc1Cl [REX-D21, (R)-5-chloro-N^2-(5-fluoro-2-methyl-4-(piperidin-4-yl)-2,3-dihydrobenzofuran-7-yl)-N^4-(3-(isopropylsulfonyl)-1-methyl-1H-pyrazol-4-yl)pyrimidine-2,4-diamine] |
|  |  | > 500 | > 180 |  | Cc1cc(Nc2nc(Nc3cn(C)nc3S(=O)(=O)C(C)C)c3sccc3n2)c2c(c1C1CCN(C)CC1)C[C@@H](C)O2 [REX-D30, (R)—N^2-(2,5-dimethyl-4-(1-methylpiperidin-4-yl)-2,3-dihydrobenzofuran-7-yl)-N^4-(3-(isopropylsulfonyl)-1-methyl-1H-pyrazol-4-yl)thieno[3,2-d]pyrimidine-2,4-diamine] |
|  |  | 23.7 | > 180 |  | Cc1cc(Nc2ncc(Cl)c(Nc3cn(C4CC4)nc3S(=O)(=O)CC(C)C)n2)c2c(c1C1CCN(C)CC1)C[C@@H](C)O2 [REX-D41, (R)-5-chloro-N^4-(1-cyclopropyl-3-(isobutylsulfonyl)-1H-pyrazol-4-yl)-N^2-(2,5-dimethyl-4-(1-methylpiperidin-4-yl)-2,3-dihydrobenzofuran-7-yl)pyrimidine-2,4-diamine] |
|  |  | > 500 | > 180 |  | Cc1cc(Nc2nc(Nc3cn(C)nc3S(=O)(=O)C(C)C)c3sccc3n2)c2c(c1C1CCNCC1)C[C@@H](C)O2 [REX-D29, (R)—N^2-(2,5-dimethyl-4-(piperidin-4-yl)-2,3-dihydrobenzofuran-7-yl)-N^4-(3-(isopropylsulfonyl)-1-methyl-1H-pyrazol-4-yl)thieno[3,2-d]pyrimidine-2,4-diamine] |
|  |  | 32.6 | > 180 |  | Cc1cc(Nc2ncc(Cl)c(Nc3cn(C)nc3S(=O)(=O)C(C)C)n2)c2c(c1C1CCNCC1)CCC(C)O2 (centres unmarked) [REX-D22, 5-chloro-N^2-(2,6-dimethyl-5-(piperidin-4-yl)chroman-8-yl)-N^4-(3-(isopropylsulfonyl)-1-methyl-1H-pyrazol-4-yl)pyrimidine-2,4-diamine] |
